This experiment concerns the target T1, endothelial lipase (EL) (Homo sapiens, UniProt Q9Y5X9).
T1 construct: transformed by RAGE technology (Athersys) to overexpress endogenous EL; endogenous in cells; conditioned medium used as the enzyme source
T1 sequence (Q9Y5X9 21-500): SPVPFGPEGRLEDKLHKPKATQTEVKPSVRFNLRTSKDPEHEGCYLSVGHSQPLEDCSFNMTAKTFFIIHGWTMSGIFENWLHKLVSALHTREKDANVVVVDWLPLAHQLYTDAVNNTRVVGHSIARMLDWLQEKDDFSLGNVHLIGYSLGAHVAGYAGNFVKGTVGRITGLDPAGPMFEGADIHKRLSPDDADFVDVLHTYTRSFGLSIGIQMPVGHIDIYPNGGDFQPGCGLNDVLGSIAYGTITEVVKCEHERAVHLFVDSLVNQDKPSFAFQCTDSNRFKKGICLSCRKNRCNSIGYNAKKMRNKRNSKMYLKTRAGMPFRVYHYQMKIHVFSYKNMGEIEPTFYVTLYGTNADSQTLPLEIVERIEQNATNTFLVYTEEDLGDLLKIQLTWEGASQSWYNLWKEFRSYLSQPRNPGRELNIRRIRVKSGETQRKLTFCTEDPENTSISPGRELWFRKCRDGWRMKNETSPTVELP
The experiment in a line: Endothelial lipase (EL) enzymatic assay with fluorescent substrate A10070 in DMPG vesicles. The experiment is classed as biochemical. As to conditions: conditioned media from HT-1080 cells overexpressing endogenous EL; 20 min preincubation at 37° C.; FRET substrate A10070; read-out: HLE_EL_CRC IC50. The protocol:
Endothelial lipase activity was measured using a fluorescent substrate, A10070, (Invitrogen, CA) doped into an artificial vesicle containing DMPG (Avanti Polar Lipids) as the excipient. Vesicles were prepared by combining 285 uL of 1 mM DMPG in a 1:1 mixture of MeOH and CHCl3 with 15 uL of 1 mM A10070 in a 1:1 mixture of MeOH and CHCl3. The mixture was dried under nitrogen and resuspended in 150 uL of 50 mM HEPES pH 8.0 buffer containing 100 mM NaCl and 0.2 mM EDTA. The sample was allowed to sit at rt for 15 min and then was sonicated 3×4 mins on ice with a Branson Sonicator using duty cycle 1. This preparation provides vesicles with a mole fraction of 0.05 for the FRET substrate.
The enzymatic assay was measured using white, opaque 96-well half area plates. Each well contained 60 uL of assay buffer (50 mM HEPES pH 8.0, 50 mM NaCl and 1 mM CaCl2) and 2 ul of a DMSO solution containing compound of interest. Conditioned media obtained from HT-1080 cells, which were transformed by RAGE technology (Athersys) to overexpress endogenous EL, was added and the reaction was allowed to incubate for 20 min at 37° C. with gentle agitation. The reaction was started by the addition of 20 uL of a 1:4 dilution of vesicles. The final total reaction volume was 100 uL. The reaction rates were measured on a Gemini plate reader with an excitation wavelength of 488 nm and a emission of 530 nm. Readings were taken every 20 seconds for 10 min with agitation between each reading. The slope of the linear portion of the readout was used to calculate the rate of the reaction.
Take `O=C(NCCCc1ccc(Cl)cc1Cl)c1c(O)c(=O)[nH]c2ccc(OC(F)(F)F)cc12` [Example 28, N-(3-(2,4-dichlorophenyl)propyl)-3-hydroxy-2-oxo-6-(trifluoromethoxy)-1,2-dihydroquinoline-4-carboxamide]: the IC50 came out at 35 nM. Turning to `Cn1c(=O)c(O)c(C(=O)NCc2ccc(OC(F)(F)F)cc2)c2ccccc21` [Example 85, 3-hydroxy-1-methyl-2-oxo-N-(4-(trifluoromethoxy)benzyl)-1,2-dihydroquinoline-4-carboxamide], the IC50 is 43 nM. As to `Cn1c(=O)c(O)c(C(=O)NCCCc2ccccc2Cl)c2ccccc21` [Example 27, N-(3-(2-chlorophenyl)propyl)-3-hydroxy-1-methyl-2-oxo-1,2-dihydroquinoline-4-carboxamide], the IC50 is 35 nM.

In the case of `Cn1c(=O)c(O)c(C(=O)NCCOc2ccc(Cl)cc2)c2ccccc21` [Example 26, N-(2-(4-chlorophenoxy)ethyl)-3-hydroxy-1-methyl-2-oxo-1,2-dihydroquinoline-4-carboxamide], the IC50 worked out at 91 nM. The value for `Cn1c(=O)c(O)c(C(=O)NC(Cc2ccccc2)c2ccccc2)c2ccccc21` (stereo not shown) [Example 155, N-(1,2-diphenylethyl)-3-hydroxy-1-methyl-2-oxo-1,2-dihydroquinoline-4-carboxamide] was 3120 nM; that for `Cn1c(=O)c(O)c(C(=O)NCCCc2ccc(Cl)cc2Cl)c2ccccc21` [Example 2, N-(3-(2,4-Dichlorophenyl)propyl)-3-hydroxy-1-methyl-2-oxo-1,2-dihydroquinoline-4-carboxamide] was 13 nM; that for `O=C(NCCCOc1c(Cl)cccc1Cl)c1c(O)c(=O)[nH]c2ccc(OC(F)(F)F)cc12` [Example 51, N-(3-(2,6-dichlorophenoxy)propyl)-3-hydroxy-2-oxo-6-(trifluoromethoxy)-1,2-dihydroquinoline-4-carboxamide] was 40 nM. As for `Cn1c(=O)c(O)c(C(=O)NCc2ccc(C(F)(F)F)cc2)c2ccccc21` [Example 105, 3-hydroxy-1-methyl-2-oxo-N-(4-(trifluoromethyl)benzyl)-1,2-dihydroquinoline-4-carboxamide], the IC50 came to 100 nM. With `Cn1c(=O)c(O)c(C(=O)NCc2csc(-c3ccccc3)n2)c2ccccc21` [Example 90, 3-hydroxy-1-methyl-2-oxo-N-((2-phenylthiazol-4-yl)methyl)-1,2-dihydroquinoline-4-carboxamide], the concentration for half-maximal inhibition (IC50) worked out at 83 nM.

Turning to `Cn1c(=O)c(O)c(C(=O)NCCCc2ccc(Cl)c(Cl)c2)c2cc(Cl)ccc21` [Example 3, 6-Chloro-N-(3-(3,4-dichlorophenyl)propyl)-3-hydroxy-1-methyl-2-oxo-1,2-dihydroquinoline-4-carboxamide], the IC50 turned out to be 10 nM.

For the compound `Cn1c(=O)c(O)c(C(=O)NCc2ccccc2N2CCCC2)c2ccccc21` [Example 109, 3-hydroxy-1-methyl-2-oxo-N-(2-(pyrrolidin-1-yl)benzyl)-1,2-dihydroquinoline-4-carboxamide], the half-inhibitory concentration (IC50) amounted to 2910 nM. The value for `Cn1c(=O)c(O)c(C(=O)NCc2ccccc2N2CCC(CO)CC2)c2ccccc21` [Example 141, 3-hydroxy-N-(2-(4-(hydroxymethyl)piperidin-1-yl)benzyl)-1-methyl-2-oxo-1,2-dihydroquinoline-4-carboxamide] was 1700 nM; that for `COc1ccccc1OCCCNC(=O)c1c(O)c(=O)n(C)c2ccccc12` [Example 147, 3-hydroxy-N-(3-(2-methoxyphenoxy)propyl)-1-methyl-2-oxo-1,2-dihydroquinoline-4-carboxamide] was 49 nM; that for `O=C(NCCCOc1ccccc1C(F)(F)F)c1c(O)c(=O)[nH]c2ccc(OC(F)(F)F)cc12` [Example 50, 3-hydroxy-2-oxo-6-(trifluoromethoxy)-N-(3-(2-(trifluoromethyl)phenoxy)propyl)-1,2-dihydroquinoline-4-carboxamide] was 12 nM. The value for `C[C@@H](NC(=O)c1c(O)c(=O)n(C)c2ccccc12)c1cccc(-c2ccccc2)c1` [Example 64, (R)-N-(1-(biphenyl-3-yl)ethyl)-3-hydroxy-1-methyl-2-oxo-1,2-dihydroquinoline-4-carboxamide] was 64 nM; that for `Cn1c(=O)c(O)c(C(=O)NCc2cccc(-n3cccc3)c2)c2ccccc21` [Example 172, N-(3-(1H-pyrrol-1-yl)benzyl)-3-hydroxy-1-methyl-2-oxo-1,2-dihydroquinoline-4-carboxamide] was 10 nM; that for `Cn1c(=O)c(O)c(C(=O)NCCCc2ccc(Cl)c(Cl)c2)c2ccccc21` [Example 1, N-(3-(3,4-dichlorophenyl)propyl)-3-hydroxy-1-methyl-2-oxo-1,2-dihydroquinoline-4-carboxamide] was 10 nM.

On to `O=C(NCCCc1c(Cl)cccc1Cl)c1c(O)c(=O)[nH]c2ccc(OC(F)(F)F)cc12` [Example 43, N-(3-(2,6-dichlorophenyl)propyl)-3-hydroxy-2-oxo-6-(trifluoromethoxy)-1,2-dihydroquinoline-4-carboxamide], for which the IC50 came out at 70 nM. For `O=C(NCCCc1ccc(Cl)c(Cl)c1)c1c(O)c(=O)[nH]c2ccccc12` [Example 5, N-(3-(3,4-dichlorophenyl)propyl)-3-hydroxy-2-oxo-1,2-dihydroquinoline-4-carboxamide] the value was 11 nM. The value for `Cn1c(=O)c(O)c(C(=O)NCc2nc3ccccc3s2)c2ccccc21` [Example 107, N-(benzo[d]thiazol-2-ylmethyl)-3-hydroxy-1-methyl-2-oxo-1,2-dihydroquinoline-4-carboxamide] was 11100 nM. Take `Cn1c(=O)c(O)c(C(=O)NCCCOc2ccc(-c3ccccc3)cc2)c2ccccc21` [Example 133, N-(3-(biphenyl-4-yloxy)propyl)-3-hydroxy-1-methyl-2-oxo-1,2-dihydroquinoline-4-carboxamide]: the half-inhibitory concentration (IC50) worked out at 10 nM.

With `Cn1c(=O)c(O)c(C(=O)NCCCN2CCCC2=O)c2ccccc21` [Example 103, 3-hydroxy-1-methyl-2-oxo-N-(3-(2-oxopyrrolidin-1-yl)propyl)-1,2-dihydroquinoline-4-carboxamide], the IC50 was 9360 nM. As for `Cn1c(=O)c(O)c(C(=O)NCc2cccc(OC(F)(F)F)c2)c2ccccc21` [Example 86, 3-hydroxy-1-methyl-2-oxo-N-(3-(trifluoromethoxy)benzyl)-1,2-dihydroquinoline-4-carboxamide], the IC50 turned out to be 37 nM.

Regarding `Cn1c(=O)c(O)c(C(=O)NCCc2ccc(C(F)(F)F)cc2)c2ccccc21` [Example 92, 3-hydroxy-1-methyl-2-oxo-N-(4-(trifluoromethyl)phenethyl)-1,2-dihydroquinoline-4-carboxamide], the IC50 amounted to 84 nM. For `COC[C@H](Cc1ccccc1)NC(=O)c1c(O)c(=O)n(C)c2ccccc12` [Example 96, (S)-3-hydroxy-N-(1-methoxy-3-phenylpropan-2-yl)-1-methyl-2-oxo-1,2-dihydroquinoline-4-carboxamide] the value was 8530 nM; for `O=C(NCc1cccc(-c2ccc(Cl)cc2)c1)c1c(O)c(=O)[nH]c2ccc(OC(F)(F)F)cc12` [Example 42, N-((4′-chlorobiphenyl-3-yl)methyl)-3-hydroxy-2-oxo-6-(trifluoromethoxy)-1,2-dihydroquinoline-4-carboxamide], 96 nM.

In the case of `Cn1c(=O)c(O)c(C(=O)NCCc2ccc(-c3ccc(F)cc3)cc2)c2ccccc21` [Example 151, N-(2-(4′-fluorobiphenyl-4-yl)ethyl)-3-hydroxy-1-methyl-2-oxo-1,2-dihydroquinoline-4-carboxamide], the IC50 amounted to 75 nM. As to `O=C(NCC1CN(S(=O)(=O)c2ccc(Cl)c(Cl)c2)C1)c1c(O)c(=O)[nH]c2ccc(OC(F)(F)F)cc12` [Example 55, N-((1-(3,4-dichlorophenylsulfonyl)azetidin-3-yl)methyl)-3-hydroxy-2-oxo-6-(trifluoromethoxy)-1,2-dihydroquinoline-4-carboxamide], the half-inhibitory concentration (IC50) came to 25 nM.

In general, IC50 refers to the point on the concentration scale where inhibition reaches its midpoint.
